Measured values from patent US20210253710A1, “DIAGNOSTIC AND THERAPEUTIC METHODS FOR KIDNEY CANCER” (Genentech, Inc., priority 2018, published 2021).
Where two headings read alike, the source gives them in different places. Marks after values point to notes of the source that are not given here.

What was measured:
[1] = test system: patients with metastatic RCC with sarcomatoid histology; test: IMmotion151 subgroup analysis: efficacy in patients whose tumors had sarcomatoid histology; type: in vivo, human; details: for Median OS: clinical cutoff Aug. 13, 2018; for Confirmed INV-assessed ORR / Median INV-assessed PFS: clinical cutoff Sep. 29, 2017
From the text: Sarcomatoid renal carcinoma was defined as any histologic type of renal cell carcinoma containing a focus/foci of high-grade malignant spindle cells of any component relative to the entire tumor area. Such a classification required evidence of epithelial differentiation with concurrent areas of renal cell carcinoma or evidence of epithelial differentiation in the spindle cells with immunohistochemical positivity for keratin or epithelial membrane antigen (EMA). Frequent patterns include fibrosarcoma, malignant fibrous histiocytoma, and rhabdomyosarcoma. Focal spindling due to noncohesion of tumor cells was not considered to represent sarcomatoid differentiation. Any spindle component relative to the entire tumor area was sufficient. The degree of sarcomatoid differentiation was recorded as 1) any component, 2) >20% component, or 3) predominant sarcomatoid component.
(§1) IMmotion151 is a multicenter, randomized, open-label, Phase III study evaluating the efficacy and safety of atezolizumab+bevacizumab vs those of sunitinib in patients with previously untreated, inoperable, locally advanced or metastatic RCC (FIG. 1). The co-primary endpoints were (i) investigator (INV)-assessed progression-free survival (PFS) in patients with ≥1% IC expressing PD-L1 (PD-L1+) and (ii) interim overall survival (OS) in the intent-to-treat (ITT) population. Secondary endpoints inclue INV-assessed PFS and OS in patients with sarcomatoid histology and are reported here with INV-assessed objective response rate (ORR), safety, patient-reported outcomes (PROs) of symptoms and function and biomarker evaluation.
Patients were included in this subgroup analysis if their tumor had any component of sarcomatoid histology, referred to in this presentation as “All Sarc,” as reported by the investigator per the local pathology report. P values are for descriptive purposes only. Gene expression analyses of baseline tumor samples were performed as previously described and focused on T-effector and angiogenesis signatures (see, e.g., McDermott et al. Nat. Med. 24:749-757, 2018). The clinical cutoff for PFS, ORR, PRO and safety was Sep. 29, 2017, with a median follow-up of 13 months. The clinical cutoff for OS was Aug. 13, 2018, with a median follow-up of 17 months.

[2] = test system: safety-evaluable patients with locally advanced or metastatic RCC; test: IMmotion151 safety (adverse events, AESI); type: in vivo; details: for Patients with ≥ 1 event: Adrenal insufficiency, All Grades / Patients with ≥ 1 event: Adrenal insufficiency, Grade 3-4 / Patients with ≥ 1 event: Colitis, All Grades / Patients with ≥ 1 event: Colitis, Grade 3-4 / Patients with ≥ 1 event: Hyperthyroidism, All Grades / Patients with ≥ 1 event: Hyperthyroidism, Grade 3-4 / Patients with ≥ 1 event: Hypothyroidism, All Grades / Patients with ≥ 1 event: Hypothyroidism, Grade 3-4 / Patients with ≥ 1 event: Liver function test abnormalities, All Grades / Patients with ≥ 1 event: Liver function test abnormalities, Grade 3-4 / Patients with ≥ 1 event: Pneumonitis, All Grades / Patients with ≥ 1 event: Pneumonitis, Grade 3-4 / Patients with ≥ 1 event: Rash, All Grades / Patients with ≥ 1 event: Rash, Grade 3-4: AESI; for Patients with ≥ 1 event: Any AESI, All Grades / Patients with ≥ 1 event: Any AESI, Grade 3-4: all treatment-emergent AEs
Description: Patients in the Atezolizumab+Bevacizumab (“Atezo+Bev”) arm received both atezolizumab and bevacizumab until loss of clinical benefit, unacceptable toxicity or symptomatic deterioration attributed to disease progression, withdrawal of consent, or death, whichever occured first. Atezolizumab was administered at a fixed dose of 1200 milligrams (mg) via intravenous (IV) infusion on Days 1 and 22 of each 42-day cycle. Bevacizumab was be administered at a dose of 15 milligrams per kilogram (mg/kg) via IV infusion on Days 1 and 22 of each 42-day cycle. Patients in the sunitinib arm received sunitinib until loss of clinical benefit, unacceptable toxicity or symptomatic deterioration attributed to disease progression, withdrawal of consent, or death, whichever occured first. Sunitinib was administered at a dose of 50 mg once daily, orally via capsule, on Day 1 through Day 28 of each 42-day cycle.
as §1
Patients were included in this subgroup analysis if their tumor had any component of sarcomatoid histology, referred to in this presentation as “All Sarc,” as reported by the investigator per the local pathology report. P values are for descriptive purposes only. […] The clinical cutoff for PFS, ORR, PRO and safety was Sep. […] The clinical cutoff for OS was Aug.

[3] = test system: patients with inoperable, locally advanced, or metastatic RCC; test: IMmotion151 Phase III study: efficacy of atezolizumab plus bevacizumab versus sunitinib (ITT and PD-L1+ populations); type: in vivo, human; details: investigator-assessed
From the text: The IMmotion151 study (ClinicalTrials.gov Identifier NCT02420821) is a multi-center, randomized, open-label study to evaluate the efficacy and safety of atezolizumab plus bevacizumab versus sunitinib in patients with inoperable, locally advanced, or metastatic RCC who have not received prior systemic active or experimental therapy in either the adjuvant or metastatic setting. The co-primary endpoints of the study were PFS in the PD-L1^+ subgroup, and OS in the ITT population. The exploratory endpoints included biomarker characterization in sarcomatoid tumors and MSKCC risk subgroups, as well as validation of gene signatures from the IMmotion150 study and their association with PFS. […]
as §1, with “Secondary endpoints inclue INV-assessed PFS and OS in patients with sarcomatoid histology and are reported here with INV-assessed objective response rate (ORR), safety, patient-reported outcomes (PROs) of symptoms and function and biomarker evaluation.” left out

[4] = test system: patients with inoperable, locally advanced, or metastatic RCC; details: Rini et al. Lancet 2019, cited from earlier work; for Median OS: clinical cutoff Aug. 13, 2018; for Confirmed INV-assessed ORR / Median INV-assessed PFS: clinical cutoff Sep. 29, 2017
[5] = test system: patients with untreated metastatic renal cell carcinoma; test: IMmotion151 PFS analysis in biomarker-evaluable subgroups (Angio and Teff gene signatures, MSKCC risk); type: in vivo, human
Description: The MSKCC (Motzer) criteria used were as follows. The risk factors included 1) a Karnofsky Performance Status (KPS) score <80; 2) a corrected serum calcium >10 mg/dL; 3) an LDH level >1.5 times the upper limit of normal; 4) a hemoglobin level <the lower limit of normal; 5) a time from nephrectomy to systemic therapy of […] (an individual also was scored as having this risk factor if they were initially assessed with metastatic disease or if they have had no nephrectomy). The risk stratification was as follows: individuals having 3 risk factors belong to the poor risk subgroup; individuals having 1 or 2 risk factors belong to the intermediate risk subgroup; and individuals having 0 risk factors belong to the favorable group. For study purposes, systemic therapy was designated as the date of initial study screening. The formula for corrected calcium was Corrected calcium=serum calcium (mg/dL)+0.8 (4 […] serum albumin (g/dL)).
In the phase II IMmotion150 study, gene signatures were identified based on association with clinical outcome. The T-effector (“Teff”) signature included CD8a, IFNG, PRF1, EOMES, and CD274. The Angiogenesis (“Angio”) signature included VEGFA, KDR, ESM1, PECAM1, CD34, and ANGPTL4. […] In the IMmotion151 study, a pre-specified analysis of association with PFS was performed. Unstratified HR and log-rank test were used for PFS analyses in biomarker-evaluable patients. The IMmotion151 transcriptome map confirmed biological subgroups identified in […], including the angiogenesis, immune and antigen presentation (including the Teff signature), and myeloid inflammation subgroups (FIG. 4).

[6] = patients with >20% sarcomatoid component

SMILES: CCN(CC)CCNC(=O)c1c(C)[nH]c(/C=C2\C(=O)Nc3ccc(F)cc32)c1C [Sunitinib, N-[2-(Diethylamino)ethyl]-5-[(Z)-(5-fluoro-2-oxo-1,2-dihydro-3H-indol-3-ylidene)methyl]-2,4-dimethyl-1H-pyrrole-3-carboxamide]
- CR ([1]; All Sarc): 3%
- Ongoing responses ([1]; All Sarc): 3 n
- Median OS ([1]; All Sarc): 15.4 mo
- Confirmed INV-assessed ORR ([1]; All Sarc): 14%
- Median INV-assessed PFS ([1]; All Sarc): 5.3 mo
- CR ([1]; PD-Li + Sarc): 4%
- Ongoing responses ([1]; PD-Li + Sarc): 0 n
- Median OS ([1]; PD-Li + Sarc): 15.0 mo
- Confirmed INV-assessed ORR ([1]; PD-Li + Sarc): 12%
- Median INV-assessed PFS ([1]; PD-Li + Sarc): 5.6 mo
- CR rate [1, 6]: 0%
- ORR [1, 6]: 4%
- overall response rate (ORR) ([1]; patients with sarcomatoid differentiation (Example 1)): 18%
- Treatment-related AEs ([2]; All Safety Evaluable): 96%
- Treatment-related AEs leading to discontinuation of any treatment component ([2]; All Safety Evaluable): 8%
- Treatment-related AEs leading to discontinuation of treatment regimen ([2]; All Safety Evaluable): 8%
- Treatment-related AEs, Grade 3-4 ([2]; All Safety Evaluable): 54%
- Treatment-related deaths ([2]; All Safety Evaluable): 1^e n
- Patients with ≥ 1 event: Adrenal insufficiency, All Grades ([2]; All Safety Evaluable): 0%
- Patients with ≥ 1 event: Adrenal insufficiency, Grade 3-4 ([2]; All Safety Evaluable): 0%
- Patients with ≥ 1 event: Colitis, All Grades ([2]; All Safety Evaluable): <1%
- Patients with ≥ 1 event: Colitis, Grade 3-4 ([2]; All Safety Evaluable): <1%
- Patients with ≥ 1 event: Hyperthyroidism, All Grades ([2]; All Safety Evaluable): 3%
- Patients with ≥ 1 event: Hyperthyroidism, Grade 3-4 ([2]; All Safety Evaluable): 0%
- Patients with ≥ 1 event: Hypothyroidism, All Grades ([2]; All Safety Evaluable): 26%
- Patients with ≥ 1 event: Hypothyroidism, Grade 3-4 ([2]; All Safety Evaluable): <1%
- Patients with ≥ 1 event: Liver function test abnormalities, All Grades ([2]; All Safety Evaluable): 18%
- Patients with ≥ 1 event: Liver function test abnormalities, Grade 3-4 ([2]; All Safety Evaluable): 4%
- Patients with ≥ 1 event: Pneumonitis, All Grades ([2]; All Safety Evaluable): 0%
- Patients with ≥ 1 event: Pneumonitis, Grade 3-4 ([2]; All Safety Evaluable): 0%
- Patients with ≥ 1 event: Rash, All Grades ([2]; All Safety Evaluable): 15%
- Patients with ≥ 1 event: Rash, Grade 3-4 ([2]; All Safety Evaluable): <1%
- Patients with ≥ 1 event: Any AESI, All Grades ([2]; All Safety Evaluable): 72%
- Patients with ≥ 1 event: Any AESI, Grade 3-4 ([2]; All Safety Evaluable): 17%
- Treatment-related AEs ([2]; Sarc Safety Evaluable): 94%
- Treatment-related AEs leading to discontinuation of any treatment component ([2]; Sarc Safety Evaluable): 3%
- Treatment-related AEs leading to discontinuation of treatment regimen ([2]; Sarc Safety Evaluable): 3%
- Treatment-related AEs, Grade 3-4 ([2]; Sarc Safety Evaluable): 49%
- Treatment-related deaths ([2]; Sarc Safety Evaluable): 0 n
- Patients with ≥ 1 event: Adrenal insufficiency, All Grades ([2]; Sarc Safety Evaluable): 0%
- Patients with ≥ 1 event: Adrenal insufficiency, Grade 3-4 ([2]; Sarc Safety Evaluable): 0%
- Patients with ≥ 1 event: Colitis, All Grades ([2]; Sarc Safety Evaluable): 1%
- Patients with ≥ 1 event: Colitis, Grade 3-4 ([2]; Sarc Safety Evaluable): 0%
- Patients with ≥ 1 event: Hyperthyroidism, All Grades ([2]; Sarc Safety Evaluable): 1%
- Patients with ≥ 1 event: Hyperthyroidism, Grade 3-4 ([2]; Sarc Safety Evaluable): 0%
- Patients with ≥ 1 event: Hypothyroidism, All Grades ([2]; Sarc Safety Evaluable): 16%
- Patients with ≥ 1 event: Hypothyroidism, Grade 3-4 ([2]; Sarc Safety Evaluable): 0%
- Patients with ≥ 1 event: Liver function test abnormalities, All Grades ([2]; Sarc Safety Evaluable): 10%
- Patients with ≥ 1 event: Liver function test abnormalities, Grade 3-4 ([2]; Sarc Safety Evaluable): 3%
- Patients with ≥ 1 event: Pneumonitis, All Grades ([2]; Sarc Safety Evaluable): 0%
- Patients with ≥ 1 event: Pneumonitis, Grade 3-4 ([2]; Sarc Safety Evaluable): 0%
- Patients with ≥ 1 event: Rash, All Grades ([2]; Sarc Safety Evaluable): 14%
- Patients with ≥ 1 event: Rash, Grade 3-4 ([2]; Sarc Safety Evaluable): 0%
- Patients with ≥ 1 event: Any AESI, All Grades ([2]; Sarc Safety Evaluable): 66%
- Patients with ≥ 1 event: Any AESI, Grade 3-4 ([2]; Sarc Safety Evaluable): 11%
- median PFS ([3]; ITT population): 8.4 months
- median PFS ([3]; PD-L1+ patients): 7.7 months
- CR ([4]; ITT): 2%
- Ongoing responses ([4]; ITT): 90 n
- Median OS ([4]; ITT): 34.9 mo
- Confirmed INV-assessed ORR ([4]; ITT): 33%
- Median INV-assessed PFS ([4]; ITT): 8.4 mo
- CR ([4]; PD-L1 + ITT): 4%
- Ongoing responses ([4]; PD-L1 + ITT): 34 n
- Median OS ([4]; PD-L1 + ITT): 32.7 mo
- Confirmed INV-assessed ORR ([4]; PD-L1 + ITT): 35%
- Median INV-assessed PFS ([4]; PD-L1 + ITT): 7.7 mo
- Teff gene signature and PFS within the treatment arm ([5]; Teff High versus Low within arm, in words): did not differentiate PFS
- PFS in the Angio High subgroup versus the Angio Low subgroup ([5]; within sunitinib arm, in words): improved PFS
- PFS HR (95% CI) for Angiogenesis (High versus Low) ([5]; within treatment arm): 0.59 (0.47, 0.75)
